No end group written: not given here.
Columns and labels:
[1] = tested on: IgG in serum samples of patients recovered from SARS-COV-2 infection; type: binding, human
[2] = target: S2 protein of SARS-COV-2 (Severe acute respiratory syndrome coronavirus 2, UniProt P0DTC2)
[3] = target: RBD protein of SARS-COV-2 (Severe acute respiratory syndrome coronavirus 2, UniProt P0DTC2)
[4] = target: binding between ACE2 and RBD (Severe acute respiratory syndrome coronavirus 2, UniProt P0DTC2); conditions: for inhibition of the binding between ACE2 and RBD: serum of mice sensitized with conjugate, FIG. 2, FIG. 3(A)

| Sequence | reaction with antibodies in serum samples obtained from the 5 patients [1] | S2 recognizing ability of mouse serum IgG [2] | RBD recognition ability of mouse serum IgG [3] | also measured |
| --- | --- | --- | --- | --- |
| ASVVNIQKEIDRLNEVAKNL [#114] | strongly react | high | – | – |
| DRLNEVAKNLNESLIDLQE (also: conjugate) [#115] | strongly react | high | – | – |
| ELDSFKEELDKYFKNHTS (also: conjugate) [#111] | strongly react | high | – | – |
| EVRQIAPGQTGKIADYNYKLPD [#8] | – | – | high | – |
| NATRFASVYAWNRKRISNC [#3] | – | – | high | inhibition of the binding between ACE2 and RBD [4]: inhibit the binding between ACE2 and RBD |
| SNLKPFERDISTEIYQAGSTPC [#11] | – | – | high | inhibitory ability on ACE2-RBD binding compared with positive control ([4]; mouse serum diluted to 100-fold, positive control mouse anti-RBD polyclonal antibody, FIG. 2): equivalent to that of the positive control; inhibitory effects on ACE2-RBD binding compared with serum of recovered patients ([4]; versus the 4 patients other than patient A, FIG. 3(B)): substantially equivalent |
| YGVSPTKLNDLCF (also: conjugate) [#5] | – | – | without the RBD protein recognizing ability | inhibition of the binding between ACE2 and RBD [4]: substantially no inhibitory activity was observed |
